# Test results taken from PubChem BioAssay AID248 (DTP/NCI, 2004).
# “And” between values parts separate entries of the source, which are not always exact repeats. Identical values can stand only once. Toxic doses and inconclusive results are not listed.
# Test system: L1210 leukemia ip in BDF1 mice, survival T/C
# Assay: NCI In Vivo Anticancer Drug Screen. Data for tumor model L1210 Leukemia (intraperitoneal) in B6D2F1 (BDF1) mice
# Conditions: endpoint: mean survival time, higher = longer survival
# Outline: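 Antitumor effect is assessed in tumor-bearing animals. Survival in the compound arm is compared with a vehicle-dosed control arm and expressed as their quotient.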
# [1] = dose: 100.0 mg/kg/injection, schedule: Q04DX003 (ip), vehicle: Klucel (hydroxypropylcellulose) (HPC)
# [2] = dose: 200.0 mg/kg/injection, schedule: Q04DX003 (ip), vehicle: Klucel (hydroxypropylcellulose) (HPC)
# [3] = dose: 400.0 mg/kg/injection, schedule: Q04DX003 (ip), vehicle: Klucel (hydroxypropylcellulose) (HPC)
# [4] = dose: 100.0 mg/kg/injection, schedule: Q01DX009 (ip), vehicle: saline with Tween-80
# [5] = dose: 100.0 mg/kg/injection, schedule: Q01DX009 (ip), vehicle: Klucel (hydroxypropylcellulose) (HPC)
# [6] = dose: 200.0 mg/kg/injection, schedule: Q01DX009 (ip), vehicle: Klucel (hydroxypropylcellulose) (HPC)
# [7] = dose: 100.0 mg/kg/injection, schedule: Q04DX002 (ip), vehicle: Klucel (hydroxypropylcellulose) (HPC)
# [8] = dose: 200.0 mg/kg/injection, schedule: Q04DX002 (ip), vehicle: Klucel (hydroxypropylcellulose) (HPC)
# [9] = dose: 400.0 mg/kg/injection, schedule: Q04DX002 (ip), vehicle: Klucel (hydroxypropylcellulose) (HPC)
# [10] = dose: 50.0 mg/kg/injection, schedule: Q01DX009 (ip), vehicle: Klucel (hydroxypropylcellulose) (HPC)
smiles,measurement,setting,value
Nc1ncnc2c1ncn2C(C=O)OC(C=O)CO (stereo unspecified),T/C,"dose: 4.37 mg/kg/injection, schedule: Q01DX009 (ip), vehicle: water",123 % of control
same,T/C,"dose: 4.37 mg/kg/injection, schedule: Q01DX Z (ip), vehicle: water",123 % of control
same,T/C,"dose: 8.75 mg/kg/injection, schedule: Q01DX Z (ip), vehicle: water",157 % of control
same,T/C,"dose: 8.8 mg/kg/injection, schedule: Q01DX Z (ip), vehicle: carboxymethylcellulose (CMC)",115 % of control
same,T/C,"dose: 13.3 mg/kg/injection, schedule: Q01DX Z (ip), vehicle: carboxymethylcellulose (CMC)",121 % of control
same,T/C,"dose: 17.5 mg/kg/injection, schedule: Q01DX009 (ip), vehicle: water",172 % of control
same,T/C,"dose: 17.5 mg/kg/injection, schedule: Q01DX Z (ip), vehicle: water",172 % of control
same,T/C,"dose: 30.0 mg/kg/injection, schedule: Q01DX Z (ip), vehicle: carboxymethylcellulose (CMC)",116 % of control
same,T/C,"dose: 35.0 mg/kg/injection, schedule: Q01DX Z (ip), vehicle: water",92 % of control
same,T/C,"dose: 42.0 mg/kg/injection, schedule: Q01DX Z (oral), vehicle: carboxymethylcellulose (CMC)",115 % of control
same,T/C,"dose: 45.0 mg/kg/injection, schedule: Q01DX Z (ip), vehicle: carboxymethylcellulose (CMC)",100 % of control and 101 % of control
same,T/C,"dose: 64.0 mg/kg/injection, schedule: Q01DX Z (oral), vehicle: carboxymethylcellulose (CMC)",107 % of control
same,T/C,"dose: 68.0 mg/kg/injection, schedule: Q01DX Z (ip), vehicle: carboxymethylcellulose (CMC)",105 % of control and 121 % of control
same,T/C,"dose: 79.0 mg/kg/injection, schedule: Q01DX009 (oral), vehicle: saline",109 % of control
same,T/C,"dose: 96.0 mg/kg/injection, schedule: Q01DX Z (oral), vehicle: carboxymethylcellulose (CMC)",109 % of control
same,T/C,"dose: 119.0 mg/kg/injection, schedule: Q01DX009 (oral), vehicle: saline",109 % of control
same,T/C,"dose: 144.0 mg/kg/injection, schedule: Q01DX Z (oral), vehicle: carboxymethylcellulose (CMC)",96 % of control
same,T/C,"dose: 178.0 mg/kg/injection, schedule: Q01DX009 (oral), vehicle: saline",112 % of control
COC(=O)CCC(=O)c1cccc2ccccc12,T/C,"dose: 100.0 mg/kg/injection, schedule: Q04DX003 (ip), vehicle: acetone",91 % of control
same,T/C,"dose: 200.0 mg/kg/injection, schedule: Q04DX003 (ip), vehicle: acetone",96 % of control
same,T/C,"dose: 400.0 mg/kg/injection, schedule: Q04DX003 (ip), vehicle: acetone",95 % of control
CCCCCCOc1ccc(C=Nc2ccc(C)cc2)cc1,T/C,[1],97 % of control
same,T/C,[2],103 % of control
same,T/C,[3],101 % of control
O=CC(=O)c1ccccc1,T/C,"dose: 25.0 mg/kg/injection, schedule: Q01DX009 (ip), vehicle: saline with Tween-80",100 % of control
same,T/C,"dose: 25.0 mg/kg/injection, schedule: Q01DX009 (ip), vehicle: saline",101 % of control
same,T/C,"dose: 50.0 mg/kg/injection, schedule: Q01DX009 (ip), vehicle: saline with Tween-80",105 % of control
same,T/C,"dose: 50.0 mg/kg/injection, schedule: Q01DX009 (ip), vehicle: saline",104 % of control
same,T/C,"dose: 75.0 mg/kg/injection, schedule: Q01DX009 (ip), vehicle: saline with Tween-80",98 % of control
same,T/C,[4],107 % of control
CCSc1nc(=S)cc(C)[nH]1,T/C,[5],96 % of control
same,T/C,[1],103 % of control
same,T/C,[6],91 % of control
same,T/C,[2],98 % of control
same,T/C,"dose: 400.0 mg/kg/injection, schedule: Q01DX009 (ip), vehicle: Klucel (hydroxypropylcellulose) (HPC)",90 % of control
same,T/C,[3],87 % of control
O=C(C=C(C(F)(F)F)C(F)(F)F)c1cccc(S(=O)(=O)F)c1,T/C,"dose: 3.13 mg/kg/injection, schedule: Q01DX009 (ip), vehicle: saline with Tween-80",96 % of control
same,T/C,"dose: 6.25 mg/kg/injection, schedule: Q01DX009 (ip), vehicle: saline with Tween-80",100 % of control
same,T/C,"dose: 12.5 mg/kg/injection, schedule: Q01DX009 (ip), vehicle: saline with Tween-80",95 % of control
CCc1nc(N)nc(-c2ccccc2)c1-c1ccc([N+](=O)[O-])cc1O,T/C,[1],98 % of control
same,T/C,[2],95 % of control
same,T/C,[3],97 % of control
S=C=NCc1cccc2ccccc12,T/C,"dose: 2.5 mg/kg/injection, schedule: Q01DX009 (ip), vehicle: carboxymethylcellulose (CMC)",90 % of control
same,T/C,"dose: 5.0 mg/kg/injection, schedule: Q01DX009 (ip), vehicle: carboxymethylcellulose (CMC)",94 % of control
same,T/C,"dose: 5.0 mg/kg/injection, schedule: Q04DX003 (ip), vehicle: carboxymethylcellulose (CMC)",101 % of control
same,T/C,"dose: 10.0 mg/kg/injection, schedule: Q01DX001 (ip), vehicle: carboxymethylcellulose (CMC)",93 % of control
same,T/C,"dose: 10.0 mg/kg/injection, schedule: Q01DX009 (ip), vehicle: carboxymethylcellulose (CMC)",105 % of control
same,T/C,"dose: 10.0 mg/kg/injection, schedule: Q04DX003 (ip), vehicle: carboxymethylcellulose (CMC)",97 % of control
same,T/C,"dose: 20.0 mg/kg/injection, schedule: Q01DX001 (ip), vehicle: carboxymethylcellulose (CMC)",87 % of control
same,T/C,"dose: 20.0 mg/kg/injection, schedule: Q04DX003 (ip), vehicle: carboxymethylcellulose (CMC)",97 % of control
CCCCCCCCCCCCCCCCN(C)c1ccc([N+](=O)[O-])cc1,T/C,[1],94 % of control
same,T/C,[2],96 % of control
same,T/C,[3],96 % of control
NC(C(=O)O)C(C(=O)O)c1ccccc1 (stereo unspecified),T/C,[7],101 % of control
same,T/C,[8],101 % of control
same,T/C,[9],93 % of control
CO[C@H]1/C=C/O[C@@]2(C)Oc3c(C)c(O)c4c(O)c(c(/C=N/N5CCNCC5)c(O)c4c3C2=O)NC(=O)/C(C)=C\C=C\[C@H](C)[C@H](O)[C@@H](C)[C@@H](O)[C@@H](C)C(OC(C)=O)[C@@H]1C (stereo partly specified),T/C,"dose: 25.0 mg/kg/injection, schedule: Q01DX001 (ip), vehicle: water",98 % of control
same,T/C,"dose: 25.0 mg/kg/injection, schedule: Q01DX009 (ip), vehicle: Klucel (hydroxypropylcellulose) (HPC)",100 % of control
same,T/C,"dose: 50.0 mg/kg/injection, schedule: Q01DX001 (ip), vehicle: water",102 % of control
same,T/C,[10],94 % of control
same,T/C,"dose: 100.0 mg/kg/injection, schedule: Q01DX001 (ip), vehicle: water",101 % of control
same,T/C,[5],94 % of control
same,T/C,"dose: 200.0 mg/kg/injection, schedule: Q01DX001 (ip), vehicle: water",106 % of control
same,T/C,[6],100 % of control
same,T/C,"dose: 400.0 mg/kg/injection, schedule: Q01DX001 (ip), vehicle: water",102 % of control
C=CCN(CC=C)C(=O)Nc1ccc(Cl)c(C(F)(F)F)c1,T/C,[4],97 % of control
same,T/C,"dose: 200.0 mg/kg/injection, schedule: Q01DX009 (ip), vehicle: saline with Tween-80",105 % of control
same,T/C,"dose: 400.0 mg/kg/injection, schedule: Q01DX009 (ip), vehicle: saline with Tween-80",110 % of control
Oc1ccc[n+](CCCl)c1,T/C,"dose: 6.25 mg/kg/injection, schedule: Q01DX015 (ip), vehicle: saline",96 % of control
same,T/C,"dose: 12.5 mg/kg/injection, schedule: Q01DX015 (ip), vehicle: saline",100 % of control
same,T/C,"dose: 25.0 mg/kg/injection, schedule: Q01DX015 (ip), vehicle: saline",104 % of control
same,T/C,"dose: 50.0 mg/kg/injection, schedule: Q01DX015 (ip), vehicle: saline",100 % of control
same,T/C,"dose: 100.0 mg/kg/injection, schedule: Q01DX015 (ip), vehicle: saline",100 % of control
same,T/C,"dose: 200.0 mg/kg/injection, schedule: Q01DX015 (ip), vehicle: saline",96 % of control
same,T/C,"dose: 300.0 mg/kg/injection, schedule: Q01DX015 (ip), vehicle: saline",100 % of control
CCOc1ccc(/C=N/Nc2nnc(N/N=C/c3ccc(OCC)c(OCC)c3)c3ccccc23)cc1OCC,T/C,"dose: 50.0 mg/kg/injection, schedule: Q01DX001 (ip), vehicle: carboxymethylcellulose (CMC)",95 % of control
CSc1nc2ccc(S(=O)(=O)O)cc2s1,T/C,[10],104 % of control
same,T/C,[5],96 % of control
same,T/C,[6],97 % of control
CC(=O)OC1CCC2(C)C(=CCC3C2CCC2(C)C3CC3C(c4ccccc4F)=NN(c4ccccc4)C32C#N)C1 (stereo unspecified),T/C,[7],106 % of control
same,T/C,[8],95 % of control
same,T/C,[9],95 % of control
CCCCSC1=CC(=O)c2ccccc2C1=O,T/C,"dose: 12.5 mg/kg/injection, schedule: Q04DX003 (ip), vehicle: Klucel (hydroxypropylcellulose) (HPC)",104 % of control
CCC#CC(O)(C(=O)OCC)C1CCCC1 (stereo unspecified),T/C,"dose: 100.0 mg/kg/injection, schedule: Q01DX001 (ip), vehicle: saline",105 % of control
same,T/C,"dose: 200.0 mg/kg/injection, schedule: Q01DX001 (ip), vehicle: saline",105 % of control
same,T/C,"dose: 400.0 mg/kg/injection, schedule: Q01DX001 (ip), vehicle: saline",111 % of control
